Publication PMC7136958, “Targeting the pregnane X receptor using microbial metabolite mimicry” (EMBO Molecular Medicine, 2020)
In brackets after ≈: the same amount, converted by molar mass. Several values for one entry are separate records, joined by “and”; a condition that tells them apart may be missing. Equal values may be shown once.

Experiments:
[1] = system: RXR; assay: [11,12-3H(N)] 9-cis retinoic acid binding competition assay (RXR ligand binding), rat liver nuclear extracts; details: 39.94 nM compound, 0.66 nM radioligand
Description: 8), 50 mM NaCl, 0.1 mM EDTA, 1 mM DTT, 1 mM PMSF, and 1% DMSO. The substrate is 3H-CoA (acetyl coenzyme A) and the incubation time is for 1 h at 30° C. The radioactivity in mixture is detected on washed filter paper using a scintillation counter. The Histone Deacetylase (HDAC) fluorescent activity assay (HDAC1-3) is based on the using 2X purified human enzyme mixed with the reaction buffer (50 mM Tris-HCl pH 8, 137 mM NaCl, 2.7 mM KCl, and 1 mM MgCl2, 1 mg/mL fresh BSA and 1% fresh DMSO) and then compounds (in 100% DMSO) are titrated in using Acoustic Technology.
(§1) The 2X HDAC substrate is a fluorogenic acetylated peptide from p53 (residues 379 - 38 2 RHKK(Ac)AMC) which is mixed in with the enzyme-compound complex and incubated for 1-2 h at 30 °C. In the development step, a proprietary developer with trichostatin A (or TMP269) is added to stop the reaction and to generate fluorescent color which is read using an EnVision Multilabel Plate Reader (Perkin Elmer) (Ex 360 nm/ Em 460 nm). For all enzyme activity assays, the percentage of enzyme activity (relative to DMSO controls) and IC50 values were calculated using GraphPad Prism 4 program (sigmoidal dose response equations).
Isolation of cell nuclei. Rat liver nuclear fraction was prepared from rat livers by the procedure established and optimized previously 19. […]

[2] = target: T1, HDAC3 (Homo sapiens, UniProt O15379); assay: HDAC fluorescent activity assay; format: biochemical; details: substrate Peptide (Ac), replicates
T1 construct: purchased Reaction Biology Corp
T1 sequence (O15379 whole entry): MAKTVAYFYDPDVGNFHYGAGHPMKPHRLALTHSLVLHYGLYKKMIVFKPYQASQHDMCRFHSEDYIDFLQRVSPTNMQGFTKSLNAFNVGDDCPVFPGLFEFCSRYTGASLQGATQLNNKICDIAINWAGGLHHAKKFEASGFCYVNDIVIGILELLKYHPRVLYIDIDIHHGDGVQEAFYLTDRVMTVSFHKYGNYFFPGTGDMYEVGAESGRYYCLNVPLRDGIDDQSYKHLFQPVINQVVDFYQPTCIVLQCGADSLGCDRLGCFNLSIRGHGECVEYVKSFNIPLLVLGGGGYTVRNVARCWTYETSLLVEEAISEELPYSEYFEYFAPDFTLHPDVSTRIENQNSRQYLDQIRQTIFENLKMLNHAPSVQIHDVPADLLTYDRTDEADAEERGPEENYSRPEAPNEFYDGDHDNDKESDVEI
T1 sequence (Q9Y618 395-489 partner limits assumed): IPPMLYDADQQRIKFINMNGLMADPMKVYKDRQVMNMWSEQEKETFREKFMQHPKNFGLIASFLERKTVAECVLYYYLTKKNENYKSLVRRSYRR
Description: (§2) The following […] assays (HDAC, SIRT1, PRMT1, PARP1, p300, pCAF) were performed by Reaction Biology Corp. FKK6 was screened at a single concentration of 10 μM in duplicate in two separate experiments. The appropriate controls for the individual assays are published. […]
(§3) The Histone Deacetylase (HDAC) fluorescent activity assay (HDAC1-3) is based on the using 2X purified human enzyme mixed with the reaction buffer (50 mM Tris-HCl pH 8, 137 mM NaCl, 2.7 mM KCl, and 1 mM MgCl2, 1 mg/mL fresh BSA and 1% fresh DMSO) and then compounds (in 100% DMSO) are titrated in using Acoustic Technology.
as §1, with “equations). […]” for “equations).”
(§4) SMCT solution (0.32 M sucrose, 10 mM Tris -HCl, 1 mM MgCl2, 1 mM CaCl2, 0.1 mM PMSF and freshly prepared 1 mM DTT at pH 7.4) once in the presence of 0.25% Triton X-100 and once in its

[3] = target: T2, HDAC1 (Homo sapiens, UniProt Q13547); assay: HDAC fluorescent activity assay; format: biochemical; details: substrate Peptide (Ac), replicates
T2 construct: purchased Reaction Biology Corp
T2 sequence (Q13547 whole entry): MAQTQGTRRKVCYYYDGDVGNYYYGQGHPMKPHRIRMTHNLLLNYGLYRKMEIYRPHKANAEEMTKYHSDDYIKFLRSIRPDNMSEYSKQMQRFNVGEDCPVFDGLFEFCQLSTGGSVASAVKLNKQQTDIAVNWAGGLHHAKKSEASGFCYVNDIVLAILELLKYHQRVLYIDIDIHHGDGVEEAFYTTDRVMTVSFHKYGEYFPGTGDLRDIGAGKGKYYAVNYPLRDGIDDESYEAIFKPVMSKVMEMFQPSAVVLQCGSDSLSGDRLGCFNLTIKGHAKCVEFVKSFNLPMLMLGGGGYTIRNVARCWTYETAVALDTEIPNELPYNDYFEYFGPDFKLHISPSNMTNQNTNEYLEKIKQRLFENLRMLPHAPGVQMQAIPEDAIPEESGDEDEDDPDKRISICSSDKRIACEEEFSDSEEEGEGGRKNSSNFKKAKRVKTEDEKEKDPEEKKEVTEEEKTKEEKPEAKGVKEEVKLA
Description: as §2, §3
as §1, with “equations). […]” for “equations).”
as §4

[4] = target: T3, HDAC2 (Homo sapiens, UniProt Q92769); assay: HDAC fluorescent activity assay; format: biochemical; details: substrate Peptide (Ac), replicates
T3 construct: purchased Reaction Biology Corp
T3 sequence (Q92769 whole entry): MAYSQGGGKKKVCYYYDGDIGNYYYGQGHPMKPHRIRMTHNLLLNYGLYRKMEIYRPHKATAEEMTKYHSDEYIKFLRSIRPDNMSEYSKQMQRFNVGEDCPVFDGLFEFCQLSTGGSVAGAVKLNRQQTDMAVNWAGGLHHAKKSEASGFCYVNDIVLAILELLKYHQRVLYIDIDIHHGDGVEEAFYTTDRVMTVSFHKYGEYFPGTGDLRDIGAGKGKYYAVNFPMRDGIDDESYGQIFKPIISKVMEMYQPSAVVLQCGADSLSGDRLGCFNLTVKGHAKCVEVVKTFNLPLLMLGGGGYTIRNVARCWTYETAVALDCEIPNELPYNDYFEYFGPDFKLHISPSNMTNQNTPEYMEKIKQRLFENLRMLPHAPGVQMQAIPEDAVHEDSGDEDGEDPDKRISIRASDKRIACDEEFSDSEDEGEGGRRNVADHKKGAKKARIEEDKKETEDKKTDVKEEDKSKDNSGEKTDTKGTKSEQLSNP
Description: as §2, §3
as §1, with “equations). […]” for “equations).”
as §4

[5] = Solubility of FKK6 in 10% DMSO; format: physicochemical; details: aqueous, aqueous with cosolvent or surfactant or cyclodextrin, room temperature, read-out: maximal solubility (saturation concentration)
Description: FKK6 was solubilized to saturation concentrations (~ 500 μM) at room temperature in 10% DMSO (DMSO maximum tolerated dose in mice is ~ 2.5 g/kg/day for 35 consecutive days) (Caujolle et al, 1967a; Brayton, 1986).

[6] = read-out: % Enzyme Activity to DMSO controls

| Structure (SMILES) | displacement of [3H]-9-cis-retinoic acid [1] | % Enzyme Activity to DMSO controls ([2]; 10 μM) | remaining activity at 10 µM [2, 6] | % Enzyme Activity to DMSO controls ([3]; 10 μM) | remaining activity at 10 µM [3, 6] | % Enzyme Activity to DMSO controls ([4]; 10 μM) | remaining activity at 10 µM [4, 6] | solubility [5] |
| --- | --- | --- | --- | --- | --- | --- | --- | --- |
| O=S(=O)(c1ccccc1)n1c(C(O)c2ccncc2)cc2ccccc21 (racemic) [FKK1] | significant displacement |  |  |  |  |  |  |  |
| C#CCC(O)(c1ccncc1)c1cc2ccccc2n1S(=O)(=O)c1ccccc1 (centres unmarked) [FKK6] |  | 116.9% and 114.05% and 107.82% | 122% | 101.46% and 89.76% and 86.7% | 106% | 78.19% and 83.24% and 88.71% | 86.3% | ~500 µM (≈ 201 µg/mL) |
